Assays:
[1] = system: S. aureus strain ATCC 33591 (MRSA-strain); conditions: 5 mg/kg IP TID; 24 h post infection
Experimental: Organ samples were thawed and homogenized using a Polytron tissue homogenizer after addition of 3 mL isotonic sodium chloride solution. First, a calibration curve was prepared by spiking different concentrations of CorA into the respective matrix from CD-1 mice. Caffeine was used as an internal standard. In addition, quality control samples (QCs) were prepared for CorA for every matrix. For PD samples, calibration curve and QCs were prepared for levofloxacin using the same protocol. The following extraction procedure was used: 50 µL of a sample (calibration sample, QCs, PK or PD sample) was extracted with 20 µL of acetic acid in water (10/90 (v/v)) and 30 µL acetonitrile for 5 min at 800 rpm on an Eppendorf MixMate® vortex mixer. Then, samples were spun down for 20 min at 4 °C and 4000 rpm and supernatants were transferred to new Greiner 96-well V-bottom plates. Samples were analyzed using an Agilent 1290 Infinity II HPLC system (Waldbronn, Germany) coupled to an AB Sciex QTrap6500plus mass spectrometer (Darmstadt, Germany). LC conditions were as follows: column: Agilent Zorbax Exlipse Plus C18, 50 × 2.1 mm, 1.8 µm; temperature: 30 °C; injection volume: 5 µL per sample; flow rate: 800 µL/min. Samples were run under buffered conditions: A: 95% water + 5% acetonitrile + 5 mM ammonium acetate + 40 µL/L acetic acid; B: 95% acetonitrile + 5% water + 5 mM ammonium acetate + 40 µL/L acetic acid. The gradient was as follows: 99% A at 0 min, 99% A until 0.1 min, 99–0% A from 0.1 min to 4.0 min, 0% A until 4.5 min. Mass transitions for controls and compounds are depicted in Table S1. Peaks of PK samples were quantified using the calibration curve. The accuracy of the calibration curve was determined using QCs independently prepared on different days. PK parameters were determined using a non-compartmental analysis with PKSolver.
Inocula were prepared as described previously with the modification that isotonic sodium chloride solution was used instead of PBS [25]. For the neutropenic thigh and the neutropenic lung infection model the S. aureus strain ATCC 33591 (MRSA-strain) was used. For the neutropenic lung infection model an inoculum of 2 × 10^9 cfu/mL was used. For the neutropenic thigh infection model an inoculum of 7 × 10^5 cfu/mL was used.
The model was conducted as described previously. In brief, the following groups were used: (1) inoculum control group with terminal endpoint at 2 h post infection to determine baseline inoculum in vivo; (2) vehicle-treated group receiving 20 mg/kg SC tramadol and vehicle (PEG400/PBS (80:20 (v/v)); (3) levofloxacin group 5 mg/kg IP three times a day (TID) (t = 2, 6 and 10 h post infection); (4) CorA 60 mg/kg IP TID (t = 2, 6 and 10 h post infection) and (5) CorA 100 mg/kg IP BID (t = 2 and 6 h post infection). The endpoint for groups no. 2–5 was 24 h post infection. A solution of […].

[2] = system: S. aureus strain ATCC 33591 (MRSA-strain); assay: Neutropenic lung infection model with MRSA; format: in vivo, Staphylococcus aureus; conditions: 100 mg/kg IP (t = 2 h post infection); 24 h post infection
Experimental: Female, 8-week-old CD-1 mice (Charles River, Sulzfeld, Germany) were used (n = 6 animals per group). Animals were rendered neutropenic by administration of 150 mg/kg and 100 mg/kg cyclophosphamide IP on days -4 and -1, respectively. On the day of infection (day 0), mice received 15 µL of the inoculum administered via an Aeroneb® nebulizer device (Kent Scientific, Torrington, CT, USA) under anesthesia (100 mg/kg ketamine and 10 mg/kg xylazine). Mice were treated with (I) vehicle IP (PEG400/PBS), (II) with levofloxacin at 100 mg/kg IP (t = 2 h post infection, positive control group), (III) CorA at 60 mg/kg IP TID (t = 2, 5 and 9 h post infection) or (IV) CorA at 60 mg/kg IP (t = 2 h post infection) and 100 mg/kg SC BID (t = 5 and 9 h post infection).
Twenty-four hours after infection, mice were euthanized, blood was removed from the heart and lungs were aseptically removed. Whole blood was collected into Eppendorf (Hamburg, Germany) tubes coated with 0.5 M EDTA, immediately spun down at 13,000 rpm for 10 min at 4 °C, the plasma transferred into a new Eppendorf tube and stored at −80 °C until analysis. Organs were homogenized in isotonic sodium chloride solution and plated onto blood agar plates in duplicates in serial dilutions and incubated at 37 °C for 24 h.

C[C@H]1COc2c(N3CCN(C)CC3)c(F)cc3c(=O)c(C(=O)O)cn1c23 [Levofloxacin, reference compound]
bacterial burden in thigh tissue [1]: significant reduction | reduction of bacterial burden in lung tissue compared to the vehicle-treated group [1]: approximately 2 log10-units | reduction in bacterial burden in lung tissue [2]: more than 2 log10-units

From PMC9860980, “Pharmacokinetics and Pharmacodynamics (PK/PD) of Corallopyronin A against Methicillin-Resistant Staphylococcus aureus” (Pharmaceutics, 2022)
